Experiments:
Format in all cases: biochemical, Amycolatopsis sp. ATCC 39116
[1] = molecular target: T1, WT GcoA (Amycolatopsis sp., UniProt P0DPQ7); experiment: NADH consumption assay (steady-state kinetics, specific activity) with GcoB; details: for Specific activity: WT, NADH consumption, saturating (200 µM) substrate, pH 7.5, 25°C
T1 construct: GST (N, cleaved yes); made in house; host or cells: E. coli Rosetta 2 (DE3)
T1 sequence (P0DPQ7 1-407): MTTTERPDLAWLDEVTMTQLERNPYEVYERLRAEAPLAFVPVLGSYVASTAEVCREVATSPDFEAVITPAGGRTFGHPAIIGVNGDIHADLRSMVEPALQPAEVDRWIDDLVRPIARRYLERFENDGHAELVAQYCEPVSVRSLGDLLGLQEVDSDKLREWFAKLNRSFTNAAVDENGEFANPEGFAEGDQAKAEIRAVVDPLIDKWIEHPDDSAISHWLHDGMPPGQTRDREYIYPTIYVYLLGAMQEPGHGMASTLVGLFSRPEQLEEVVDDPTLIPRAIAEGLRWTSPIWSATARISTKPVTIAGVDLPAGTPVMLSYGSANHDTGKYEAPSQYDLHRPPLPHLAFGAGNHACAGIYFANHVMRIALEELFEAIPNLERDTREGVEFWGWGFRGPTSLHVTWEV

[2] = molecular target: T2, GcoA variant F169H (Amycolatopsis sp., UniProt P0DPQ7, F169H); experiment: NADH consumption assay (specific activity) with GcoB; details: saturating (200 µM) substrate, pH 7.5, 25°C
T2 construct: GST (N, cleaved yes); made in house; host or cells: E. coli Rosetta 2 (DE3)
T2 sequence (P0DPQ7 whole entry F169H): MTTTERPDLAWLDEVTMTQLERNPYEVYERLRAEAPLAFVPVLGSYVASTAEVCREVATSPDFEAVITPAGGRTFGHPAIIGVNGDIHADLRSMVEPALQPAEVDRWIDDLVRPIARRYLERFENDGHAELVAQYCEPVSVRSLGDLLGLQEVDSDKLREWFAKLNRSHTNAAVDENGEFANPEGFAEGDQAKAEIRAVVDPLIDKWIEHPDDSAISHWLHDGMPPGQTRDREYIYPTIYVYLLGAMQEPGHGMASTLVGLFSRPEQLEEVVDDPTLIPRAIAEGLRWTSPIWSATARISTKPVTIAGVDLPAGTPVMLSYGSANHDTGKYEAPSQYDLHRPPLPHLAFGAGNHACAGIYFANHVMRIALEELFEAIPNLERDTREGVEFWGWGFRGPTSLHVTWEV

[3] = molecular target: GcoA-F169A (Amycolatopsis sp., UniProt P0DPQ7, F169A); experiment: Discontinuous HPLC specific activity (aromatic substrate disappearance); set-up: GST (N, cleaved yes); made in house; host or cells: E. coli Rosetta 2 (DE3); details: 300 μM substrate, 300 μM NADH, 0.2 μM F169A/GcoB
Chain of GcoA-F169A (P0DPQ7 whole entry F169A): as the sequence (P0DPQ7 whole entry F169H) above, with H169A counted along it
Method: HPLC was used to verify the O-demethylated product of GcoA-F169A GcoA/GcoB with guaiacol, syringol, or 3MC. In addition, discontinuous HPLC was used to determine the specific activity of aromatic product disappearance. Details are provided in SI Appendix. […]
vi = Vmax[S]/(KM + [S]) (4)
Determination of substrate dissociation constants (KD) with F169A. 0-60 µM of guaiacol, syringol, or 3MC in 0.5 or 1 µM aliquots, were titrated into a cuvette containing 3 µM F169A GcoA in 25 mM HEPES, 50 mM NaCl, pH 7.5. The spectrum after each substrate addition was recorded, beginning with no substrate bound. The solution reached equilibrium before the next addition. A difference spectrum was made to illustrate the shift from a low-spin aquo-heme complex to the high-spin substrate-bound complex (spectral […]
shift from 417 nm to 388 nm). […] The absorbance […]
at 388 nm (Abs388-417 nm) was plotted as a function of [substrate], yielding a quadratic curve that was fit to equation (5) to determine […]
Formaldehyde determination. A colorimetric assay using tryptophan can be used to quantify the amount of formaldehyde produced in F169 GcoA/B reactions with guaiacol, syringol, or 3MC. […] 200 μM NADH was added and the background rate recorded. 100 (guaiacol, syringol, or 3MC) or 200 (syringol) μM of substrate was then added and the reaction monitored until there was no more change, due to either substrate, NADH or O2 depletion, whichever occurred first. […] After cooling, the absorbance was read at 575 nm and the [formaldehyde] calculated by using ε575 nm = 4.2 mM-1 cm-1, obtained with formaldehyde as a standard (1). […]
HPLC for product identification and specific activity measurement. […] Integrated intensities vs [standards] were plotted and the resulting standard curves used to quantify the reactants and products.
For specific activity determination, 300 μM guaiacol, syringol, or 3MC were added from 0.1 M DMSO stocks to air saturated buffer (25 mM HEPES, 50 mM NaCl, pH 7.5), with a final volume of 1 mL. The [analyte] was measured via the above HPLC method. […]

[4] = WT GcoA, apparent, 0.2 µM GcoAB, 300 µM NADH, 210 µM O2, 0–300 µM substrate, pH 7.5, 25 °C

SMILES	Km [1, 4] [µM]	kcat [1, 4] [s⁻¹]	Specific activity [1] [μmol sec-1 μmol-1 GcoA]	Specific activity [2] [μmol sec-1 μmol-1 GcoA]	aromatic substrate disappearance (specific activity) [3] [μM s-1 μmol F169A-1]	demethylation by WT GcoA ([1]; WT GcoA 0.2 μM, 300 μM NADH, 210 μM O2, pH 7.5, 25 °C)
COc1ccccc1O [guaiacol, 2-methoxyphenol]	60 ± 10	6.8 ± 0.02	5.0 ± 0.1	7.9 ± 3	5.6 ± 0.3	
COc1cccc(OC)c1O [syringol, 2,6-dimethoxyphenol]				3.9 ± 0.2	4.1 ± 0.3	unable to demethylate syringol
COc1cccc(O)c1O [3MC, 3-methoxycatechol]			3.2 ± 0.2	4.3 ± 0.4	2.6 ± 0.3	
